Test results as given in US20240199624A1, “COMPOUNDS, COMPOSITIONS, AND METHODS” (CHDI Foundation, Inc., priority 2022, published 2024).
pIC50: −log10 of the molar value.

Tests used:
MSH2 (human MutSbeta) = molecular target: T1, MSH2 (human MutSbeta) (Homo sapiens, UniProt P43246); assay: ATP binding and cross-linking assay (MSH2 subunit); details: [32P]-ATP UV cross-linking to MSH2 subunit of MutSbeta; read-out: cross-link assay IC50 MSH2
T1 construct: Msh2(1-934), Gene ID NP_000242.1
Experimental: ATP binding and cross-linking assay: Enzyme human MutSbeta (Msh2(1-934), Gene ID NP_000242.1, Msh3(1-1137), Gene ID J04810.1) was adjusted to 0.2 μM and, in experiments in the presence of 22 bp biotin-labeled DNA containing a GT-mismatch (purchased from Curia Global, TOP 5′-[…]-3′; BOT 3′-AGTAGCTAGGC - - - CGAAGTCTACC-5′-Biotin), pre-incubated with DNA at equimolar concentration for indicated time and temperature. All reagents were kept on ice. Enzyme was then incubated on ice for the indicated time with 5 nM γ-[^32P]-ATP (Hartmann Analytic, FP-301) or α-[^32P]-ATP (Perkin Elmer, NEG003H250UCSBF4 or Hartmann Analytic, FP-207) and addition of cold ATP (10 μM) or ADP (0.3 μM). The total volume was 20 μL and the samples were handled in Eppendorf reaction tubes. The assay buffer was 25 mM HEPES pH=7.5, 150 mM KCl, 5 mM MgCl2, 5 mM GSH, 0.01% Tween-20. All steps with radioactive ATP were conducted behind appropriate shielding. The samples were then placed on dry ice until they were frozen solid. […] The screen was analyzed in the imager (GE Healthcare, Fluorescent Image Analyzer, Typhoon FLA 7000, #5622514B), and the image was analyzed with imageJ software.

human MutSbeta = molecular target: T2, human MutSbeta (Homo sapiens, UniProt P20585+P43246); assay: P33 SPA 1.1; type: biochemical; details: Table 5A; enzyme first added to compounds, then ATP
T2 construct: Msh2(1-934), Gene ID NP_000242.1; Msh3(1-1137), Gene ID J04810.1
Experimental: P33 SPA: Enzyme human MutSbeta (Msh2(1-934), Gene ID NP_000242.1, Msh3(1-1137), Gene ID J04810.1) and 22 bp biotin-labeled DNA containing a GT-mismatch (purchased from Curia Global, TOP 5′-[…]-3′; BOT 3′-AGTAGCTAGGC - - - CGAAGTCTACC-5′-Biotin) were pre-incubated at equimolar concentration for 15 min at room temperature (“RT”) in assay buffer (25 mM HEPES pH=7.5, 150 mM KCl, 2 mM MgCl2, 2 mM GSH, 0.01% Tween-20). ATP (10 μL, 2× final concentration of γ-[^33P]-ATP (final 0.1 nM; Hartmann Analytic, FF-301) and cold ATP (final 2 μM)) was added to compounds (400 nL spotted as concentration response in 100% DMSO into wells of an OptiPlate) and pre-incubated for 30 min at RT. Then, enzyme with DNA was added (10 μL, 2× final concentration of 7 nM) and incubated for 60 min at 37° C. in a total volume of 20 μL per well. Decay of [^33P] with a half-life of 25.4 days was corrected by increasing the concentration of the labelled nucleotide with the appropriate factor; all steps with radioactive ATP were conducted behind appropriate shielding. Then, 20 μL of a 1:2 mix of ammonium molybdate (20 mg/mL Ammonium molybdate in 2.4 M HCl) and SPA beads (ProteinA SPA beads from Perkin Elmer Cat #RPNQ0019 at 7.5 mg/mL+1% azide) was added per well and incubated at RT for 2 min. Then, 40 μL of 7 M CsCl and 0.1 M citrate was added per well and incubated for 20 h at RT before measuring on the MicroBeta (top read mode, 1 min per well). For full plate processing, all reagents were transferred with a pipettor (Selma, CyBio) apart from the final reagent (CsCl+citrate) which was added with a dispenser (MultiFlo, BioTek). Data analysis during assay development was done with Prism GraphPad.
P33 SPA 11: For the SPA 1.1 assay, the addition of reagents was reversed, i.e. enzyme was first added to the compounds and pre-incubated followed by ATP addition; thus, the assay was aligned with ADP Glo 1.1 reagent addition order. The assay was repeated under similar conditions, and the results are shown below in Table 5B. It is contemplated the solubility of the compounds and/or varying test occasions may account for variability of assay results.

T2 sequence (P43246 whole entry): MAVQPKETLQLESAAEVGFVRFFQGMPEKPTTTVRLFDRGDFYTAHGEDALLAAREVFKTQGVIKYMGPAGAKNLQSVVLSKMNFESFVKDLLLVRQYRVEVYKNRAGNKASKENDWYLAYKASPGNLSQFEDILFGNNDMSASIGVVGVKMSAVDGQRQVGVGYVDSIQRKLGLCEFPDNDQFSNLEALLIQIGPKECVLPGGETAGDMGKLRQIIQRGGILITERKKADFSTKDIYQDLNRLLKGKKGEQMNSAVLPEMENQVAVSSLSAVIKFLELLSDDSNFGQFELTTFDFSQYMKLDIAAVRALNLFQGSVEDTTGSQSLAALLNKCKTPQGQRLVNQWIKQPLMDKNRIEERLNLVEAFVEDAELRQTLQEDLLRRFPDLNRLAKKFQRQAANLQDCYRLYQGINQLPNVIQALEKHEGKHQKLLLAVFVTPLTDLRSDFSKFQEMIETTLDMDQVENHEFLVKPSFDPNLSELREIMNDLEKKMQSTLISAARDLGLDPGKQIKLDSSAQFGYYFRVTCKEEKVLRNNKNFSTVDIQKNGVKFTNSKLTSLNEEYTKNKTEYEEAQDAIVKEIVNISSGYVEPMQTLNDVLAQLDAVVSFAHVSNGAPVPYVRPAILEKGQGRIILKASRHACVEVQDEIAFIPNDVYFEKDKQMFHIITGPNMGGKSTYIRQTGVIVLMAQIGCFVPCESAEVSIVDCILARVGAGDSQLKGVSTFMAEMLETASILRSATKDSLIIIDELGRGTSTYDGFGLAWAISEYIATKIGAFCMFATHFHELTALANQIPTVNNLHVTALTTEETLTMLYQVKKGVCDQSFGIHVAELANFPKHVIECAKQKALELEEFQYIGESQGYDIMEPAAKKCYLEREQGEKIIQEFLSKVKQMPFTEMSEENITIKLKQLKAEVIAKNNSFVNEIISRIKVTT
T2 sequence (P20585 whole entry): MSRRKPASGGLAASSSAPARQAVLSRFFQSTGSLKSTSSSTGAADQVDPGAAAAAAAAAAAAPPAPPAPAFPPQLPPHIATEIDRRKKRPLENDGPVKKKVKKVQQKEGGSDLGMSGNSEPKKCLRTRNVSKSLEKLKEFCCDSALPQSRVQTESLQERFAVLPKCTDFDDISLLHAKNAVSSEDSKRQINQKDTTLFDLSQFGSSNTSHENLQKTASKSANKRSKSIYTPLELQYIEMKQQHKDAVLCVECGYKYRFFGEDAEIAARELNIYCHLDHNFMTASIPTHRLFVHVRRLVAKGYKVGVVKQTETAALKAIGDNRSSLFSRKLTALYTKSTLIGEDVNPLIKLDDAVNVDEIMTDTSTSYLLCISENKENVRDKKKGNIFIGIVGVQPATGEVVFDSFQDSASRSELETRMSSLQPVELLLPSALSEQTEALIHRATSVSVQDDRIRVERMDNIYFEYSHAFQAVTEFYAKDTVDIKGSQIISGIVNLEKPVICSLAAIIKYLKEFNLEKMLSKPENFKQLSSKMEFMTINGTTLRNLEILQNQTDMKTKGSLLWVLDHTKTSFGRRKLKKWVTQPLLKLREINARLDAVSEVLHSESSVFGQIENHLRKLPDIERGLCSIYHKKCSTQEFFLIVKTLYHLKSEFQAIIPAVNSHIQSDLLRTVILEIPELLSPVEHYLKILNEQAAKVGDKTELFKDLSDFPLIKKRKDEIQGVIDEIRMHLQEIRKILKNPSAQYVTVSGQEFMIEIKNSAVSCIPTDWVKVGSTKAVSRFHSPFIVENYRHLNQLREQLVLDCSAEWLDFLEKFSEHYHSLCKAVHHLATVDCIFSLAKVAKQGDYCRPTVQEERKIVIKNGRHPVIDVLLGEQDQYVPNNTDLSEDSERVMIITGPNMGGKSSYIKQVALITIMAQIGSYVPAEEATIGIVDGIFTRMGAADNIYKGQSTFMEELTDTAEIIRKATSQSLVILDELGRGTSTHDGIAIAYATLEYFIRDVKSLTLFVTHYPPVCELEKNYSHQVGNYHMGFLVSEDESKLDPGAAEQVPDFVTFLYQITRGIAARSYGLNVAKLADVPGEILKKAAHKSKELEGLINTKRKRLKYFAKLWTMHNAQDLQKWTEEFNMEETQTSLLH
T1 sequence (P43246 whole entry): as the sequence (P43246 whole entry) above
T1 sequence (P20585 whole entry partner): as the sequence (P20585 whole entry) above

Question: Which results are given for `Cc1ccc(Nc2nc(N3CCN(C)CC3)nc3nccnc23)cc1C` [Compound 2, N-(3,4-dimethylphenyl)-2-(4-methylpiperazin-1-yl)pteridin-4-amine]?
Answer: pIC50 (MSH2 (human MutSbeta)): 3.92; pIC50 (human MutSbeta): 4.25

Question: What does the source list for `CCN1CCN(c2nc(Nc3ccc(Cl)cc3)c3nccnc3n2)CC1` [Compound 4, N-(4-Chlorophenyl)-2-(4-ethylpiperazin-1-yl)pteridin-4-amine]?
Answer: pIC50 (MSH2 (human MutSbeta)): 3.67; pIC50 (human MutSbeta): 4.39
